{
  "source": "PubChem BioAssay AID2305",
  "about": "(GlaxoSmithKline (GSK), 2010)",
  "data": [
    {"tested_on": "P. falciparum 3D7 growth, pLDH absorbance", "experiment": "blood-stage malaria parasite growth potency – strain 3D7, dose response (AID 2305)", "units": {"IC50": "nM"}, "values": [
      {"smiles": "CC(C)(C)c1ccc(NC(=O)c2cccc(CN3CCN(Cc4cccc(O)c4)CC3)c2)cc1", "IC50": 1400},
      {"smiles": "O=C(NC1CCN(Cc2ccccc2)CC1)c1cccc(-c2cc3cc(Cl)c(Cl)cc3[nH]2)c1", "IC50": 720},
      {"smiles": "Oc1ccc(-c2ccccc2)cc1CNC1CCCCC1", "IC50": 500},
      {"smiles": "COc1cc(C(=O)Nc2ccc3nc(N4CCN(C)CC4)cc(C)c3c2)cc(OC)c1OC", "IC50": 290},
      {"smiles": "COc1ccc2nc(C)cc(NCc3cccc4ccccc34)c2c1", "IC50": 220},
      {"smiles": "COc1ccc2nccc([C@@H](O)CN3CCC(NS(=O)(=O)c4cc5c(cc4Cl)SCC(=O)N5)CC3)c2c1", "IC50": 980},
      {"smiles": "COc1ccc(C2CCN(CCCCNC(=O)c3ccc(NC(=O)c4ccc(Cl)cc4)cc3)C2)c(OC)c1", "note": "(stereo not drawn)", "IC50": 1200},
      {"smiles": "Cc1cccc2[nH]c(-c3ccc(-c4cccc(CN5CCN(CCO)CC5)c4)cc3)nc12", "IC50": 730},
      {"smiles": "O=C(Nc1ccc(Cn2ncc(N3CCCNCC3)c(Cl)c2=O)cc1)Nc1ccc(SC(F)(F)F)cc1", "IC50": 530},
      {"smiles": "NCCNc1ccc([N+](=O)[O-])cc1C(=O)Nc1cccc(Cl)c1", "IC50": 1260},
      {"smiles": "COc1c(C2CCN(CCCCNC(=O)c3oc(-c4ccc(Cl)cc4)cc3CO)CC2)ccc2c1CCCC2", "IC50": 370},
      {"smiles": "COc1ccc(CNCc2ccc(F)cc2)cc1-c1ccc(OC)c(S(=O)(=O)NCCN2CCCC2)c1", "IC50": 790},
      {"smiles": "N#Cc1ccc(N(CCOC(=O)c2ccc(Br)s2)Cc2ccccc2C(F)(F)F)cc1C(F)(F)F", "IC50": 1070},
      {"smiles": "Cc1ccc(-n2c(Cc3cccc4ccccc34)nnc2SCCC#N)c(C)c1", "IC50": 460},
      {"smiles": "Cc1cc(NN=Cc2ccc(F)cc2)c2ccc(F)cc2n1", "IC50": 950},
      {"smiles": "COc1ccc(NCCCNc2ccnc3ccccc23)cc1", "IC50": 970},
      {"smiles": "CCCN1CCN(Cc2ccc(C(=O)Nc3ccc(Cl)cc3)cc2)CC1", "IC50": 50},
      {"smiles": "CC(=O)Nc1ccc(C(=O)Nc2cccc(-c3cccc(-c4nc5ccc(C(F)(F)F)cc5[nH]4)c3)c2)cn1", "IC50": 70},
      {"smiles": "Cc1[nH]c(C)c(-c2ccc(C(=O)c3ccc(Cl)cc3)cc2)c(=O)c1Br", "IC50": 810},
      {"smiles": "Cc1ccccc1CNc1noc(-c2c(F)cccc2Cl)n1", "IC50": 720},
      {"smiles": "COc1ccc(-c2ccc(NC(=O)c3ccc(C#N)cc3)cc2)cc1CN1CCC(O)CC1", "IC50": 580},
      {"smiles": "CC(C(=O)N1CCCC1)N1CCN(S(=O)(=O)c2ccc(C(C)(C)C)cc2)CC1", "note": "(stereo not drawn)", "IC50": 640},
      {"smiles": "O=C(NCc1ccc(F)cc1)Nc1ccc(-c2cccc(-c3nc4ccc(C(F)(F)F)cc4[nH]3)c2)cc1", "IC50": 950},
      {"smiles": "NC(N)=NC(=O)Nc1cc(Cl)c(F)c(Cl)c1", "IC50": 640},
      {"smiles": "CCCN(CCC)CCOC(=O)C(OCC)(c1ccccc1)c1ccccc1", "IC50": 870},
      {"smiles": "CCCCOC(=O)C1=C(C)NC2=C(C(=O)CC(c3ccc(OC)c(OC)c3)C2)C1c1ccc(O)cc1", "note": "(stereo not drawn)", "IC50": 830},
      {"smiles": "CCN(CC)CCCCOc1ccc2c(c1)C(=O)c1cc(OCCCCN(CC)CC)ccc1-2", "IC50": 760},
      {"smiles": "CN(C)CCN(C)Cc1ccc(-c2ccc(NC(=O)c3cccc(Cl)c3)cc2)cc1", "IC50": 1140},
      {"smiles": "COc1ccc(-c2ccc(NC(=O)c3ccc(C#N)cc3)cc2)cc1CN(C)CCN(C)C", "IC50": 660},
      {"smiles": "COc1cc2nc(N3CCC(CNC(=O)/C=C/c4ccccc4F)CC3)nc(N)c2cc1OC", "IC50": 580},
      {"smiles": "COc1cc(F)c2ncc(Cl)c(CCN3CCC(NCc4cc5c(cn4)OCCO5)CC3)c2c1", "IC50": 480},
      {"smiles": "COc1ccc2nc3cc(Cl)ccc3c(NCCCO)c2c1", "IC50": 780},
      {"smiles": "O=C(/C=C/c1ccc(Cl)c(Cl)c1)NCCCCCN1CCC(NC(=S)Nc2cccc(Cl)c2)CC1", "IC50": 870},
      {"smiles": "CN1CCN(CC(=O)Nc2ccc(-c3ccc(-c4nc5ccccc5[nH]4)cc3)cc2)CC1", "IC50": 700},
      {"smiles": "O=C(Nc1cccc(CN2CCCN(Cc3ccc(F)cc3)CC2)c1)c1ccc(Cl)c(Cl)c1", "IC50": 960},
      {"smiles": "O=C(Nc1ccc2c(c1)CCC2)c1nc(N2CCN(c3ccncc3)CC2)ccc1Cl", "IC50": 1380},
      {"smiles": "CC(C)C[C@H](NC(=O)c1cc2ccccc2s1)C(=O)N[C@H]1CCN(Cc2ccc(I)c(OC3CCN(C)C3)c2)C1", "note": "(stereo partly drawn)", "IC50": 920},
      {"smiles": "Cc1ccc(C(C(=O)Nc2ccc(N3CCNCC3)c(Cl)c2)c2ccccc2)cc1", "note": "(stereo not drawn)", "IC50": 840},
      {"smiles": "C=CCOc1cccc2c1CCN(CCN1CCC(NC(=O)c3ccc(-c4ccc(Cl)cc4)cc3)CC1)C2", "IC50": 670},
      {"smiles": "CCOC(=O)N/N=C/[C@H](CCc1ccccc1)NC(=O)[C@H](CC(C)C)NC(=O)c1cc2cccc(OC)c2o1", "IC50": 880},
      {"smiles": "Cc1cc(N[C@@H](CC(C)C)C(=O)NCCCOC(C)C)nc(NCCc2ccc(F)cc2)n1", "IC50": 1250},
      {"smiles": "CCN(CCCN1CCCCC1)c1cc(C)nc(Nc2ccc(C)c(F)c2)n1", "IC50": 270},
      {"smiles": "Cc1[nH]n(-c2cccc(Cl)c2)c(=O)c1-c1ccc(Cl)cc1", "IC50": 930},
      {"smiles": "COc1cc(C=CC(=O)N2CCC(CN3CCC(c4c[nH]c5ccccc45)CC3)CC2)cc(OC)c1", "IC50": 800},
      {"smiles": "O=C(NCCCCN1CC=C(c2ccc3c(c2OCC2CC2)CCCC3)CC1)c1ccc(-c2ccc(C(F)(F)F)cc2)cc1", "IC50": 540},
      {"smiles": "Nc1ccc(Nc2ccnc3ccc(C(F)(F)F)cc23)cc1O", "IC50": 720},
      {"smiles": "Fc1cccc(COc2ccc(-n3ccc4c(NCCCn5ccnc5)ncnc43)cc2Cl)n1", "IC50": 1030},
      {"smiles": "COc1ccccc1-c1cc(C(=O)N2CCN(S(=O)(=O)c3ccc(C)cc3)CC2)[nH]n1", "IC50": 1160}
    ]}
  ]
}
